The results in this text go back to patent US8921389B2, “Naphthyridine derivatives as inhibitors of hypoxia inducible factor (HIF) hydroxylase” (Fibrogen, Inc., priority 2011, dated 2014).

One may read the IC50 as the point on the concentration scale where inhibition reaches its midpoint. Higher therefore signals lower potency.

Sequence of HIF-PH2 (EGLN1) (Q9GZT9 whole entry): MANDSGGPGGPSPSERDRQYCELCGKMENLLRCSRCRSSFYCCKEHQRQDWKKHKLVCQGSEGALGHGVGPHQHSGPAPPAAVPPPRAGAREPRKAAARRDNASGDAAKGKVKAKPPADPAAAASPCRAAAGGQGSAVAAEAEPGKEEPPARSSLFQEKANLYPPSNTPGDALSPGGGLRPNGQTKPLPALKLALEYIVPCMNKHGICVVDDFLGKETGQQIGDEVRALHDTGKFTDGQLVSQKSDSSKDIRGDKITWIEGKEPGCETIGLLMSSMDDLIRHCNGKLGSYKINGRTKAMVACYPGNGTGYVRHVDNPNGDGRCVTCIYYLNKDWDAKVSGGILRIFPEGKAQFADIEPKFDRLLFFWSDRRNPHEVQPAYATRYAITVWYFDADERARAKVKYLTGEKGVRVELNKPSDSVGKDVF

The assay deals with HIF-PH2 (EGLN1) (Homo sapiens (Human), UniProt Q9GZT9). Description: HIF-PH assay (14CO2 capture, peptide-dependent turnover). The format is biochemical. The following applies: enzyme inhibition against HIF-PH2; peptide-dependent percent turnover. The source says:
Ketoglutaric acid α-[1-^14C]-sodium salt, alpha-ketoglutaric acid sodium salt, and HPLC purified peptide may be obtained from commercial sources, e.g., Perkin-Elmer (Wellesley Mass.), Sigma-Aldrich, and SynPep Corp. (Dublin Calif.), respectively. […] For example, a HIF peptide for use in the HIF-PH assay is [methoxycoumarin]-[…]-amide. HIF-PH, e.g., HIF-PH2 (EGLN1), can be expressed in, e.g., insect Hi5 cells, and partially purified, e.g., through a SP ion exchange chromatography column. […] Reactions are initiated by addition of HIF-PH enzyme.
The peptide-dependent percent turnover is calculated by subtracting percent turnover in the absence of peptide from percent turnover in the presence of substrate peptide. Percent inhibition and IC50 are calculated using peptide-dependent percent turnover at given inhibitor concentrations. Calculation of IC50 values for each inhibitor is conducted using GraFit software (Erithacus Software Ltd., Surrey UK).
Representative compounds of the disclosure were analyzed using the HIF-PH assay described above.
On to `CN(CCNC(=O)c1nc(-c2ccccc2)c2c(cc(-c3ccccc3)c(=O)n2Cc2ccccc2)c1O)S(C)(=O)=O` [Example 133, 1-Benzyl-5-hydroxy-2-oxo-3,8-diphenyl-1,2-dihydro-[1,7]naphthyridine-6-carboxylic acid [2-(methanesulfonyl-methyl-amino)-ethyl]amide], for which the midpoint of inhibition, the IC50, lay at 200 µM. As to `CN(CCNC(=O)c1nc(-c2cccnc2)c2c(cc(-c3ccccc3)c(=O)n2Cc2ccccc2)c1O)S(C)(=O)=O` [Example 134, 1-Benzyl-5-hydroxy-2-oxo-3-phenyl-8-pyridin-3-yl-1,2-dihydro-[1,7]naphthyridine-6-carboxylic acid [2-(methanesulfonyl-methyl-amino)-ethyl]amide], the IC50 is 200 µM. In turn, `O=C(N[C@H](Cc1ccccc1)C(=O)O)c1ncc2c(cc(-c3ccccc3)c(=O)n2Cc2ccccc2)c1O` [Example 152, (R)-2-[(1-Benzyl-5-hydroxy-2-oxo-3-phenyl-1,2-dihydro-[1,7]naphthyridine-6-carbonyl)-amino]-3-phenyl-propionic acid] had an IC50 of 103 µM. As to `O=C(O)CCCCNC(=O)c1nc(-c2cccnc2)c2c(cc(-c3ccccc3)c(=O)n2Cc2ccccc2)c1O` [Example 163, 5-[(1-Benzyl-5-hydroxy-2-oxo-3-phenyl-8-pyridin-3-yl-1,2-dihydro-[1,7]naphthyridine-6-carbonyl)-amino]-pentanoic acid], it took 200 µM to reach half-maximal inhibition (IC50).

Molecule `C[C@@H](c1ccccc1)n1c(=O)c(-c2ccccc2)cc2c(O)c(C(=O)NCCC(=O)O)nc(-c3cccnc3)c21` [Example 175, (S)-3-{[5-Hydroxy-2-oxo-3-phenyl-1-(1-phenyl-ethyl)-8-pyridin-3-yl-1,2-dihydro-[1,7]naphthyridine-6-carbonyl]-amino}-propionic acid] returned an IC50 of 200 µM. As for `C[C@H](c1ccccc1)n1c(=O)c(-c2ccccc2)cc2c(O)c(C(=O)NCCC(=O)O)nc(-c3cccnc3)c21` [Example 176, (R)-3-{[5-Hydroxy-2-oxo-3-phenyl-1-(1-phenyl-ethyl)-8-pyridin-3-yl-1,2-dihydro-[1,7]naphthyridine-6-carbonyl]-amino}-propionic acid], the figure is 196 µM. The figure for `Cc1ncccc1-c1nc(C(=O)NCCC(=O)O)c(O)c2cc(-c3ccccc3)c(=O)n(Cc3ccccc3)c12` [Example 178, 3-{[1-Benzyl-5-hydroxy-8-(2-methyl-pyridin-3-yl)-2-oxo-3-phenyl-1,2-dihydro-[1,7]naphthyridine-6-carbonyl]-amino}-propionic acid] is 199 µM; for `Cc1ccc(-c2nc(C(=O)NCCC(=O)O)c(O)c3cc(-c4ccccc4)c(=O)n(Cc4ccccc4)c23)cn1` [Example 179, 3-{[1-Benzyl-5-hydroxy-8-(6-methyl-pyridin-3-yl)-2-oxo-3-phenyl-1,2-dihydro-[1,7]naphthyridine-6-carbonyl]-amino}-propionic acid] it is 176 µM. For `O=C(O)CCNC(=O)c1nc(-c2ccc(C(F)(F)F)nc2)c2c(cc(-c3ccccc3)c(=O)n2Cc2ccccc2)c1O` [Example 180, 3-{[1-Benzyl-5-hydroxy-2-oxo-3-phenyl-8-(6-trifluoromethyl-pyridin-3-yl)-1,2-dihydro-[1,7]naphthyridine-6-carbonyl]-amino}-propionic acid], the IC50 amounted to 107 µM. As to `CC(C)(CNC(=O)c1nc(-c2cccnc2)c2c(cc(-c3ccccc3)c(=O)n2Cc2ccccc2)c1O)C(=O)O` [Example 191, 3-[(1-Benzyl-5-hydroxy-2-oxo-3-phenyl-8-pyridin-3-yl-1,2-dihydro-[1,7]naphthyridine-6-carbonyl)-amino]-2,2-dimethyl-propionic acid], the half-inhibitory concentration (IC50) came to 200 µM. In the case of `O=C(O)CCNC(=O)c1nc(-c2nccs2)c2c(cc(-c3ccccc3)c(=O)n2Cc2ccccc2)c1O` [Example 195, 3-[(1-Benzyl-5-hydroxy-2-oxo-3-phenyl-8-thiazol-2-yl-1,2-dihydro-[1,7]naphthyridine-6-carbonyl)-amino]-propionic acid], the IC50 was found to be 138 µM. Molecule `O=C(O)CCNC(=O)c1nc(-c2ccncc2)c2c(cc(-c3ccccc3)c(=O)n2CC2CCCCC2)c1O` [Example 198, 3-[(1-Cyclohexylmethyl-5-hydroxy-2-oxo-3-phenyl-8-pyridin-4-yl-1,2-dihydro-[1,7]naphthyridine-6-carbonyl)-amino]-propionic acid] registered a half-maximal inhibitory concentration (IC50) of 200 µM.

As for `O=C(O)CCNC(=O)c1nc(-c2cscn2)c2c(cc(-c3ccccc3)c(=O)n2Cc2ccccc2)c1O` [Example 202, 3-[(1-Benzyl-5-hydroxy-2-oxo-3-phenyl-8-thiazol-4-yl-1,2-dihydro-[1,7]naphthyridine-6-carbonyl)-amino]-propionic acid], the 50% inhibitory concentration (IC50) was found to be 200 µM. As for `O=C(O)CCNC(=O)c1nc(-c2cccnn2)c2c(cc(-c3ccccc3)c(=O)n2Cc2ccccc2)c1O` [Example 203, 3-[(1-Benzyl-5-hydroxy-2-oxo-3-phenyl-8-pyridazin-3-yl-1,2-dihydro-[1,7]naphthyridine-6-carbonyl)-amino]-propionic acid], the figure is 200 µM; as for `O=C(O)CCNC(=O)c1nc(-c2cccnc2)c2c(=O)n(Cc3ccccc3)ccc2c1O` [Example 206, 3-[(7-Benzyl-4-hydroxy-8-oxo-1-pyridin-3-yl-7,8-dihydro-[2,7]naphthyridine-3-carbonyl)-amino]-propionic acid], 200 µM.
